Measurements taken from patent publication US20210318335A1, “BIOMARKERS, COMPOSITIONS, AND METHODS FOR DIAGNOSING AND TREATING SUBJECTS EXPOSED TO PROTEIN/HEPARIN COMPLEXES” (DUKE UNIVERSITY, priority 2018, published 2021).

What was measured:
[1] = tested on: complement activation by PF4/heparin complexes; assay: Antigen-C3c capture ELISA assay: complement activation by PF4/heparin in plasma; type: biochemical, human; conditions: for effect of chelator on complement activation by PF4/heparin: 10 mM added to healthy donor plasma prior to PF4/heparin
Method: Antigen-C3c capture ELISA assay and Specificity ELISA: Antigen-specific monoclonal antibodies (mouse anti human PF4/heparin; KKO or mouse anti-protamine/heparin; ADA at 2 μg/mL) were incubated overnight on a microtiter plate (in phosphate buffered saline, PBS) followed by washing and blocking with 1% bovine serum albumin (BSA) in PBS for 2 hours. […] Unless specified antigen concentrations were 25 μg/mL (PF4) and 0.25 U/mL (heparin) for KKO coated plates and 125 μg/mL (PRT) and 6 U/mL (heparin) for ADA coated plates. Next, plasma containing antigen fixed by complement activation fragments was added to the capture plate for 1 hr followed by serial washes. Complement-coated antigen was detected using a biotinylated anti-C3c antibody (recognizes C3 and all C3c-containing fragments of C3, including iC3b; Quidel Corporation, San Diego, Calif.) followed by colorimetric detection as previously described. […] IgM studies: Goat anti-human IgM (μ-chain specific) agarose beads were used to deplete IgM from plasma. Anti-IgM or control agarose beads were incubated with plasma and depleted plasma supernatant was analyzed in the antigen-C3c capture assay described above.

B cells = assay: Flow cytometry of whole blood: binding of PF4/heparin, C3c and IgM to B cells; type: cell-based, human; conditions: whole blood incubated with PF4 25 μg/mL + heparin 0.25 U/mL; excess heparin wash
Method: Flow cytometry studies: Flow-based studies of antigen, complement, or IgM binding to B cells were performed as described previously (Khandelwal S, et al. (2016) Blood, 128(14):1789-1799). Patient samples were processed without addition of exogenous antigen. Cells were analyzed using a BD FACS Canto Flow cytometer (BD Biosciences, Franklin Lakes, N.J.). Signals from a minimum of 10,000 cells were acquired from each sample. Analyses were performed using FCS express software (Version 5 Flow Research Edition; De Novo Software).
To examine if IgM co-localizes with PF4/heparin antigen and complement on B cells, surface IgM on B cells before and after addition of antigen were examined.

[Cl-].[Cl-].[Mg+2] [Mg^2+, Magnesium chloride]
effect of Mg2+ supplementation on complement activation by PF4/heparin ([1]; EGTA-treated plasma (10 mM EGTA), MgCl2 10 mM): did not rescue complement activation

heparin
effect of excess heparin on PF4/heparin and IgM fluorescence on B cells (B cells): reduced PF4/heparin and IgM fluorescence to baseline

O=C(O)CN(CCN(CC(=O)O)CC(=O)O)CC(=O)O [EDTA, ethylenediaminetetraacetic acid]
effect of chelator on complement activation by PF4/heparin [1]: eliminated complement activation

O=C(O)CN(CCOCCOCCN(CC(=O)O)CC(=O)O)CC(=O)O [EGTA, ethylene glycol-bis (β-aminoethyl ether)-N,N,N′,N′-tetraacetic acid]
effect of chelator on complement activation by PF4/heparin [1]: eliminated complement activation

B1: C1 esterase inhibitor: C1-inhibitor, classical pathway complement inhibitor added to plasma at 10 and 20 IU/mL (protein, UniProt P05155 23-500, looked up)
Plasma protease C1 inhibitor: NPNATSSSSQDPESLQDRGEGKVATTVISKMLFVEPILEVSSLPTTNSTTNSATKITANTTDEPTTQPTTEPTTQPTIQPTQPTTQLPTDSPTQPTTGSFCPGPVTLCSDLESHSTEAVLGDALVDFSLKLYHAFSAMKKVETNMAFSPFSIASLLTQVLLGAGENTKTNLESILSYPKDFTCVHQALKGFTTKGVTSVSQIFHSPDLAIRDTFVNASRTLYSSSPRVLSNNSDANLELINTWVAKNTNNKISRLLDSLPSDTRLVLLNAIYLSAKWKTTFDPKKTRMEPFHFKNSVIKVPMMNSKKYPVAHFIDQTLKAKVGQLQLSHNLSLVILVPQNLKHRLEDMEQALSPSVFKAIMEKLEMSKFQPTLLTLPRIKVTTSQDMLSIMEKLEFFDFSYDLNLCGLTEDPDLQVSAMQHQTVLELTETGVEAAAASAISVARTLLVFEVQQPFLFVLWDQQHKFPVFMGRVYDPRA
effect of C1-inhibitor on complement activation by PF4/heparin ([1]; 10 and 20 IU/mL, healthy donor plasma pre-incubated before PF4/heparin): complement activation was reduced
